biological target: Dihydroorotate dehydrogenase (quinone), mitochondrial (Rattus norvegicus, UniProt Q63707); experiment: Inhibition of dihydroorotate dehydrogenase in Wistar rat liver mitochondrial/microsomal membranes measured for 5 mins by 2,6-dichlorophenolindophenol reduction-based spectrophotometry; assay type: cell membranes, Membrane
Sequence (Q63707 whole entry): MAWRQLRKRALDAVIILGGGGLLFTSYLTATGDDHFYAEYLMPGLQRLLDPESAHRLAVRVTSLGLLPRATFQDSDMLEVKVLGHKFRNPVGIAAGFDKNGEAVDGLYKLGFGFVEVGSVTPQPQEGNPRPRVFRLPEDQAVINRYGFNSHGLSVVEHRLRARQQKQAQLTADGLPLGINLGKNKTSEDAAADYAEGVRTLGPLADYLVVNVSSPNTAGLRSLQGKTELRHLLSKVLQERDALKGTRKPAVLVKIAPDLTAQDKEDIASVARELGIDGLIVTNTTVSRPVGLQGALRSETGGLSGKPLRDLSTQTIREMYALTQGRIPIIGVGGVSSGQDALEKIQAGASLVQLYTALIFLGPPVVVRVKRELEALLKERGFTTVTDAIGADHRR

| IC50 [nM] | Compound |
| --- | --- |
| 11000 | O=C(Nc1ccc(-c2ccccc2)cc1)c1nonc1O |
| 25000 | O=C(Nc1ccc(-c2cccc(C(F)(F)F)c2)cc1)c1nonc1O |
| 50 | O=C(Nc1c(F)c(F)c(-c2cccc(OC(F)(F)F)c2)c(F)c1F)c1no[nH]c1=O |
| 49000 | O=C(Nc1ccc(-c2ccc(C(F)(F)F)cc2)cc1)c1nonc1O |
| 66 | O=C(Nc1c(F)c(F)c(-c2ccccc2)c(F)c1F)c1no[nH]c1=O |

The remaining lines, values behind:

| Compound | IC50 [nM] |
| --- | --- |
| O=C(Nc1ccc(C(F)(F)F)cc1)c1nonc1O | 4300 |
| O=C(Nc1ccccc1-c1ccccc1)c1no[nH]c1=O | 45000 |
| O=C(Nc1c(F)cc(-c2cccc(C(F)(F)F)c2)cc1F)c1nonc1O | 870 |
| O=C(Nc1c(F)c(F)c(-c2cccc(C(F)(F)F)c2)c(F)c1F)c1nonc1O | 120 |
| O=C(Nc1c(F)cc(-c2ccc(C(F)(F)F)cc2)cc1F)c1nonc1O | 2300 |
| O=C(Nc1c(F)c(F)c(-c2ccc(C(F)(F)F)cc2)c(F)c1F)c1no[nH]c1=O | 490 |
| O=C(Nc1c(F)cc(-c2ccccc2)cc1F)c1no[nH]c1=O | 880 |

Source: ChEMBL document CHEMBL1944517, “New inhibitors of dihydroorotate dehydrogenase (DHODH) based on the 4-hydroxy-1,2,5-oxadiazol-3-yl (hydroxyfurazanyl) scaffold” (Eur J Med Chem, 2012)
